US11806342B2, “Diiodohydroxyquinoline for the treatment of clostridium difficile infection” (Purdue Research Foundation, priority 2019, dated 2023)
Structures can show the parent of a compound that is named as a salt. Where two headings read alike, the source gives them in different places.

Key:
[1] = test system: C. difficile ATCC BAA-1870; test: Initial screening of antiparasitic drugs, broth microdilution MIC; format: cell-based, Clostridium difficile
Protocol: (§1) C. difficile strains were grown anaerobically on brain heart infusion supplemented (BHIS) agar plates at 37° C. for 48 hours. Afterwards, a bacterial solution equivalent to 0.5 McFarland standard was prepared and diluted in (BHIS) broth to achieve a bacterial concentration of about 5×10^5 CFU/mL. Drugs were added and serially diluted along the plates. Plates were then, incubated anaerobically at 37° C. for 48 hours. MICs reported in Table (1) are the minimum concentrations of the drugs that could completely suppress the visual growth of bacteria.

[2] = test system: C. difficile ATCC 43255; test: as above; format: cell-based, Clostridium difficile
Protocol: as §1

[3] = Clostridioides difficile, ATCC43255
[4] = Clostridioides difficile, initial screening, C. difficile ATCC BAA 1870, read-out: MIC
[5] = Clostridioides difficile, ATCC43255, initial screening, C. difficile ATCC 43255, read-out: MIC

| SMILES | MIC [1, 4] | MIC [2, 5] | further results |
| --- | --- | --- | --- |
| CCCSc1ccc2nc(NC(=O)OC)[nH]c2c1 [Albendazole, albendazole] |  |  | MIC ([1]; Clostridioides difficile): > 128 µg/mL; MIC [2, 3]: > 128 µg/mL |
| CC(C)OC(=O)Nc1ccc2nc(-c3cscn3)[nH]c2c1 [Cambendazole, cambendazole] |  |  | MIC ([1]; initial screening, C. difficile ATCC BAA 1870): >128 µg/mL; MIC ([2]; initial screening, C. difficile ATCC 43255): >128 µg/mL |
| COC(=O)Nc1nc2ccc(C(=O)c3ccccc3)cc2[nH]1 [Mebendazole, mebendazole] | > 128 µg/mL | > 128 µg/mL |  |
| NC[C@@H]1O[C@H](O[C@H]2[C@@H](O)[C@H](O[C@@H]3[C@@H](O)[C@H](N)C[C@H](N)[C@H]3O[C@H]3O[C@H](CO)[C@@H](O)[C@H](O)[C@H]3N)O[C@@H]2CO)[C@H](N)[C@@H](O)[C@@H]1O [Paromomycin, paromomycin sulfate] | > 128 µg/mL | > 128 µg/mL |  |
| CCC[S+]([O-])c1ccc2[nH]c(NC(=O)OC)nc2c1 (stereo not drawn) [Ricobendazole, ricobendazole] |  |  | MIC ([1]; Clostridioides difficile): > 128 µg/mL; MIC [2, 3]: > 128 µg/mL |

Continued, in another order:

| MIC [1, 4] | MIC [2, 5] | SMILES | further results |
| --- | --- | --- | --- |
| > 128 µg/mL | > 128 µg/mL | O=C(C1CCCCC1)N1CC(=O)N2CCc3ccccc3C2C1 (stereo not drawn) [Praziquantel, praziquantel] |  |
| > 128 µg/mL | > 128 µg/mL | CN1CCCN=C1/C=C/c1cccs1 [Pyrantel Pamoate, pyrantel pamoate] |  |
| > 128 µg/mL | > 128 µg/mL | CCc1nc(N)nc(N)c1-c1ccc(Cl)cc1 [Pyrimethamine, pyrimethamine] |  |
| > 128 µg/mL | > 128 µg/mL | c1ccc2[nH]c(-c3cscn3)nc2c1 [Thiabendazole, thiabendazole] |  |
